The nature of assay [1]: A cytotoxicity screen of small molecule inhibitors of the PhoP region in Salmonella typhi identified in the primary screen. [Related pubchem assays: 1850, 1864, 1985 ]. Type of assay: functional.
The target of a further assay is Tumor necrosis factor (Homo sapiens, UniProt P01375). The experiment in a line: TNFa-triggered NF-kB activation inhibitors, SAR follow-up, cell-based, revised (AID 2337). Format: functional.
Assay [2] has as its target Nucleotide-binding oligomerization domain-containing protein 2 (Homo sapiens, UniProt Q9HC29). The experiment in a line: PubChem AID 2334. Format: functional.
Assay [3] deals with T1, Nucleotide-binding oligomerization domain-containing protein 1 (Homo sapiens, UniProt Q9Y239).
T1 sequence (Q9Y239 whole entry): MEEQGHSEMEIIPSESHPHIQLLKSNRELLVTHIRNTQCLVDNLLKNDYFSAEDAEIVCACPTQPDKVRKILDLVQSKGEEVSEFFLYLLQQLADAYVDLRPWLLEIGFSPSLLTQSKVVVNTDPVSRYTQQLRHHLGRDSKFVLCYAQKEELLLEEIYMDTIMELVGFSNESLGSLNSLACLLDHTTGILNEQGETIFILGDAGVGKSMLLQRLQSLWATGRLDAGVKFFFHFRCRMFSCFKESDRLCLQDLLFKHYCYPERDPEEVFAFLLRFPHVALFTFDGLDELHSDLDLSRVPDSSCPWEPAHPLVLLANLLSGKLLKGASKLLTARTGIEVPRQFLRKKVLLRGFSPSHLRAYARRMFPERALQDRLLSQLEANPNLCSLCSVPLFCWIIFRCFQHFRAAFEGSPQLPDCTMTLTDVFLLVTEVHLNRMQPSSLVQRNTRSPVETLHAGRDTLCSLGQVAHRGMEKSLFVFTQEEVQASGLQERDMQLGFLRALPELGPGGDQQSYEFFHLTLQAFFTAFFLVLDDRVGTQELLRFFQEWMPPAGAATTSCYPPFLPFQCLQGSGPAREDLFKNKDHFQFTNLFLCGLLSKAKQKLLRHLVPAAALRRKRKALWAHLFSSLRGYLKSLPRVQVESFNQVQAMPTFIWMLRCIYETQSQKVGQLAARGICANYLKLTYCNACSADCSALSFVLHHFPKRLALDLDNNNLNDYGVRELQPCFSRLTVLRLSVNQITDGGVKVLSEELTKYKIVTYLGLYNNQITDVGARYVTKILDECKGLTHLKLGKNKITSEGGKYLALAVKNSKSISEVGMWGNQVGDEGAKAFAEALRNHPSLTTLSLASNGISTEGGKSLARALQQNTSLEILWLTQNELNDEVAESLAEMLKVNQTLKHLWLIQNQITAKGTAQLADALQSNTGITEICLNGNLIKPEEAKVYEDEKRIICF
The experiment in a line: NOD1 signaling inhibitors, SAR follow-up, revised (AID 2333). Format: functional.

For another assay, the system named is HEK293. The experiment in a line: cells. Particulars: Homo sapiens.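 Further: cells exposed to compound for 14 hours overnight before viability readout.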
Assay [4] in a line: P. falciparum Dd2 growth inhibitors, dose response, SYBR Green, cherry-picked samples (AID 1159567). Type of assay: functional, cell-based.
Assay [5] in a line: HepG2 cell cytotoxicity, dose response, cytotoxicity control, cherry-picked samples (AID 1159577). Type of assay: functional, cell-based.
Assay [6] addresses Disintegrin and metalloproteinase domain-containing protein 17 (Homo sapiens, UniProt P78536). As to the kind of experiment: exosite inhibitors of ADAM17, dose response, biochemical (AID 743260).
A short description of assay [7]: ADAM10 protease inhibitors, dose response, selectivity assay for ADAM17 exosite inhibitor project, biochemical, FRET peptide substrate, recombinant human ADAM10 (AID 743259).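 Further: ADAM10 enzyme cleaving a FRET peptide substrate.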
Assay [8] can be described thus: HEp-2 cell cytotoxicity, dose response, cytotoxicity control for RSV inhibitor project, HTS (AID 2410). Type of assay: functional. The note with it: human respiratory syncytial virus.
For assay [9], the target named is T2, Polyadenylate-binding protein 1 (Homo sapiens, UniProt P11940). The experiment in a line: PABP1 MLLE–PAM2 binding inhibitor potency, dose response, biochemical, fluorescence polarization, FITC-PAM2 peptide (AID 602259). The note with it: read-out: IC50_Mean. Type of assay: functional. (Polarisation of emitted light reports the rotation of a fluorescent probe.)
T2 sequence (P11940 whole entry): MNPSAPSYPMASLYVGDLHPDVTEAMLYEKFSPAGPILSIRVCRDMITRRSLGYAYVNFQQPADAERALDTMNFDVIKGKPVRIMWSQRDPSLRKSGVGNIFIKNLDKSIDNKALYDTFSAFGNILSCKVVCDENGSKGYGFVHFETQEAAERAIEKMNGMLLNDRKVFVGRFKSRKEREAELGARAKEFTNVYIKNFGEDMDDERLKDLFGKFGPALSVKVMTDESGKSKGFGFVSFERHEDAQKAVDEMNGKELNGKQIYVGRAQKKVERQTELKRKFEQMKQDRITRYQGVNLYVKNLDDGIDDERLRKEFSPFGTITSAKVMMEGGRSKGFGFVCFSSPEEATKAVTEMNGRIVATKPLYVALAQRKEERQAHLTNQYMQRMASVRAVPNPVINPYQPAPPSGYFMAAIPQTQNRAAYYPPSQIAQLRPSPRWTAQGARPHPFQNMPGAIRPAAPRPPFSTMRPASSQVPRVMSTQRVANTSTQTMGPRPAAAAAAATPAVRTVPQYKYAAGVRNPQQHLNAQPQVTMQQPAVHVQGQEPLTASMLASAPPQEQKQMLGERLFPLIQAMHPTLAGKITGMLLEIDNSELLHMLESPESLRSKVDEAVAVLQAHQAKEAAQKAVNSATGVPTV

Assay [10] has as its target DNA dC->dU-editing enzyme APOBEC-3G (Homo sapiens, UniProt Q9HC16). As to the kind of experiment: Dose Response confirmation of small molecule APOBEC3G DNA Deaminase Inhibitors via a fluorescence-based single-stranded DNA deaminase assay. [Related pubchem assays (depositor defined):AID493012, AID493028]. Format: functional.
The target in assay [11] is T2, Polyadenylate-binding protein 1. The experiment in a line: PABP1 MLLE–PAM2 interaction inhibitors, dose response, miRNA deadenylation inhibitor project, biochemical, fluorescence polarization, Cy5-PAM2 peptide, secondary (AID 602260). Type of assay: functional. Particulars: read-out: IC50_Mean.
A further assay has as its target Prothrombin (Homo sapiens, UniProt P00734). The experiment in a line: Thrombin 1536 HTS Dose Response Confirmation. [Related pubchem assays: 1046 (Thrombin 1536 HTS; hits were confirmed in this assay)]. Type of assay: functional.
In the next assay the target is SUMO-activating enzyme (Homo sapiens, UniProt Q9UBT2). As to the kind of experiment: SUMOylation inhibitor hit validation, confirmation, SUMOylation inhibitor project, biochemical, AlphaScreen (AID 2018). Format: functional.
Chain of SUMO-activating enzyme (Q9UBE0 whole entry): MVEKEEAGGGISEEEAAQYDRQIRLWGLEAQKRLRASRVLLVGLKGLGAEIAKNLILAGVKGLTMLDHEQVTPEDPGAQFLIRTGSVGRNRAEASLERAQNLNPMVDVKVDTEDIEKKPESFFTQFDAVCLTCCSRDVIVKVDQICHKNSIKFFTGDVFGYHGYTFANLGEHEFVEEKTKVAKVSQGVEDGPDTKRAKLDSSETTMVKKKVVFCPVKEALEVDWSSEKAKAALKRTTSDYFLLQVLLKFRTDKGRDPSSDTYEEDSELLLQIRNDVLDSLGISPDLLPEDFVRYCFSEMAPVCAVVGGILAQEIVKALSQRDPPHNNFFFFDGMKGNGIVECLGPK
Chain of SUMO-activating enzyme (Q9UBT2 whole entry): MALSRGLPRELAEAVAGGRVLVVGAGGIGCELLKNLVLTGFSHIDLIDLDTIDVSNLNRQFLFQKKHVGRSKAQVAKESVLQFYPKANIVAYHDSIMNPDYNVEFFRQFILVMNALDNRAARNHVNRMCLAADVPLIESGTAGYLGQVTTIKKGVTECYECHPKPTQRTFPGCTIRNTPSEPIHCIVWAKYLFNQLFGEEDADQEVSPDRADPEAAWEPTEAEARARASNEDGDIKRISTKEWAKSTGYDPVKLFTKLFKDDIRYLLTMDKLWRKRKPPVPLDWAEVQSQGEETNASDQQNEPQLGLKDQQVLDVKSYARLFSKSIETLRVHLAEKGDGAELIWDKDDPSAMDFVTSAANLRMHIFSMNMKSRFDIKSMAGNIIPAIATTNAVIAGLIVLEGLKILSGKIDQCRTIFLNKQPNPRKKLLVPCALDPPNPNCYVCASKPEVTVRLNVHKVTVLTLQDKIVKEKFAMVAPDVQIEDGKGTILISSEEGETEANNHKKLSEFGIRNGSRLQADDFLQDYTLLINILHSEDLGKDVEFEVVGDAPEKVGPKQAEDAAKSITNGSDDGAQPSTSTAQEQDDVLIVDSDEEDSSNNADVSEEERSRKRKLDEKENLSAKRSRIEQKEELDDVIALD
Assay [12] deals with Luciferin 4-monooxygenase (Photinus pyralis, UniProt P08659). The experiment in a line: firefly luciferase enzyme inhibitors, dose response, biochemical, luminescence (AID 1891).
Chain of Luciferin 4-monooxygenase (P08659 whole entry): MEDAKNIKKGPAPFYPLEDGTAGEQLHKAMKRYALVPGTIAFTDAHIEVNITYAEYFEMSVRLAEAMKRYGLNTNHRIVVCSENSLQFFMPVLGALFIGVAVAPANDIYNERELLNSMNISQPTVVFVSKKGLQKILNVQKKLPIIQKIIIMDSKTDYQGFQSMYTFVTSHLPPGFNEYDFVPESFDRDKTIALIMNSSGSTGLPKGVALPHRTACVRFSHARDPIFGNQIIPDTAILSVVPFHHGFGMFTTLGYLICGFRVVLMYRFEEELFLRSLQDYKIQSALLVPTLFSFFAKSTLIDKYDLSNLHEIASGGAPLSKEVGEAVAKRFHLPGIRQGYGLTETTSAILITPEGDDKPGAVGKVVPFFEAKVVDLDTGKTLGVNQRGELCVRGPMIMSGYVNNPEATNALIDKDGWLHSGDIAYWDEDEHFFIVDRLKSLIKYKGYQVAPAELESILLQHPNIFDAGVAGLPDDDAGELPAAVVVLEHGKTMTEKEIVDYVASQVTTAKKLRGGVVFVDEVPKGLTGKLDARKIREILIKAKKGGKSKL
A further assay has as its target Estrogen receptor beta (Homo sapiens, UniProt Q92731). As to the kind of experiment: ERβ–SRC-3 coactivator interaction inhibitors, confirmation, orthogonal assay, biochemical, ELISA, streptavidin-HRP readout (AID 1060). (ELISA stands for enzyme-linked immunosorbent assay.)
The nature of assay [13]: inhibitors of intracellular T. cruzi replication, confirmation, NIH3T3 host cells, beta-gal luminescence (AID 2044).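 Further: intracellular parasites grown in NIH/3T3 mouse fibroblasts as host cells; luminescent beta-galactosidase reporter signal from transgenic T. cruzi replicating inside host cells; inhibitors lower the luminescence signal.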 Type of assay: functional, cell-based.
Assay [14] in a line: cytotoxicity toward NIH3T3 fibroblasts, dose response, counter-screen, cell-based, ATP luminescence, mouse fibroblasts (AID 2010).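 Further: cells exposed to compound for about 90 hours before reading.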 Type of assay: functional. (The purpose of a counterscreen is to sort out artefacts and off-target activity.)
The nature of assay [15]: HepG2 cell cytotoxicity, dose response, cytotoxicity control for non-replicating M. tuberculosis project (AID 489018). Format: functional. Particulars: Mycobacterium tuberculosis.
Assay [16] is described as follows: Vero E6 cell cytotoxicity, dose response, cytotoxicity control for non-replicating M. tuberculosis project, secondary assay (AID 492998). Type of assay: functional, VeroE6. Particulars: Vero C1008.
A short description of assay [17]: THP-1 cell cytotoxicity, dose response, cytotoxicity control for non-replicating M. tuberculosis project (AID 489025). Format: functional.
The nature of a further assay: cells. Type of assay: functional.
A short description of assay [18]: Luminescence Cell-Based Dose Retest to Confirm Inhibitors of Cancer Stem Cells. [Related pubchem assays (depositor defined):AID2717, AID2721]. Type of assay: functional. Particulars: Homo sapiens.
Assay [19] concerns the target T3, Ubiquitin-conjugating enzyme E2 N (Homo sapiens, UniProt P61088).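 Further: Dose-response confirmation in a TR-FRET assay detecting UBC13-driven polyubiquitin chain formation, inhibition measured.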
T3 sequence (P61088 whole entry): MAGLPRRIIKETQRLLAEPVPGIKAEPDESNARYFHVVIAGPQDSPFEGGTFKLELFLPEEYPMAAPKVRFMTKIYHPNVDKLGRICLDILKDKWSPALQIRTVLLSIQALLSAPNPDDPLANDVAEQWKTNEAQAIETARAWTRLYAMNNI
Format: functional.

Assay [20] addresses Eukaryotic translation initiation factor 4E (Mus musculus, UniProt P63073). As to the kind of experiment: eIF4E–eIF4G protein interaction inhibitors, dose response, biochemical, TR-FRET (AID 855).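 Further: potency for disrupting eIF4E binding to eIF4GI seen as loss of FRET.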 Format: functional.

The source made the active and inactive calls.

As a reminder, the EC50 is the concentration at which the effect is half-maximal. One may read the AC50 as the concentration giving half of the maximal activity seen. What is called CC50 is the concentration that lowers cell viability or growth by half.

Chain of Disintegrin and metalloproteinase domain-containing protein 17 (P78536 whole entry, the tested form may be a part): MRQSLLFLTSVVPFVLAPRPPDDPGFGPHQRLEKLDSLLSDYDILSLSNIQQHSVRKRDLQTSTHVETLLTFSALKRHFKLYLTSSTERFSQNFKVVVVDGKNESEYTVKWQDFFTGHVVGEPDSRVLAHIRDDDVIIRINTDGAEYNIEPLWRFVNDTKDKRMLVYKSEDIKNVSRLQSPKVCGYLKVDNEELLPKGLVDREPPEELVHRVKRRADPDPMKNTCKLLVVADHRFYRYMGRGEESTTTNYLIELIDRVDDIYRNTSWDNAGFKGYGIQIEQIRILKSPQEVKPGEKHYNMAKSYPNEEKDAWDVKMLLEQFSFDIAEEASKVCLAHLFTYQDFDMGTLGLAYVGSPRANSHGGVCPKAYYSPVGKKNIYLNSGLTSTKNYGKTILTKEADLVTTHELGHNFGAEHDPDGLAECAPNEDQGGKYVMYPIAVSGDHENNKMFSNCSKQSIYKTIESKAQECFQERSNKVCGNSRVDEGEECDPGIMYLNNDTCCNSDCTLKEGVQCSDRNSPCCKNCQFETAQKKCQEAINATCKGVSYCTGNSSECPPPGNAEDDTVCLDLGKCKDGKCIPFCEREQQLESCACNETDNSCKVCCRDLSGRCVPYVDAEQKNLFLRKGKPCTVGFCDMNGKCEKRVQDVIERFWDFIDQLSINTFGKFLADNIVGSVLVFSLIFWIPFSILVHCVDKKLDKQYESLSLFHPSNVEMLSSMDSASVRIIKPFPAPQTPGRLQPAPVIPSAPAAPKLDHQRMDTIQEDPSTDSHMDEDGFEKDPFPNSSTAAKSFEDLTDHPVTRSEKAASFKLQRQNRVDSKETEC
Chain of Tumor necrosis factor (P01375 whole entry, the tested form may be a part): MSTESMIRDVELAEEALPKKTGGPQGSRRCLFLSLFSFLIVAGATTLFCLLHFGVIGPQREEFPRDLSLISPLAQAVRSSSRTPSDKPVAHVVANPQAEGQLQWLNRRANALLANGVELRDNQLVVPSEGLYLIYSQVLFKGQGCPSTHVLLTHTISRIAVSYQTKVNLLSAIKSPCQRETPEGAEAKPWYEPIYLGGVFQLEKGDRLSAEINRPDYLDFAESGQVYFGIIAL
Chain of Nucleotide-binding oligomerization domain-containing protein 2 (Q9HC29 whole entry, the tested form may be a part): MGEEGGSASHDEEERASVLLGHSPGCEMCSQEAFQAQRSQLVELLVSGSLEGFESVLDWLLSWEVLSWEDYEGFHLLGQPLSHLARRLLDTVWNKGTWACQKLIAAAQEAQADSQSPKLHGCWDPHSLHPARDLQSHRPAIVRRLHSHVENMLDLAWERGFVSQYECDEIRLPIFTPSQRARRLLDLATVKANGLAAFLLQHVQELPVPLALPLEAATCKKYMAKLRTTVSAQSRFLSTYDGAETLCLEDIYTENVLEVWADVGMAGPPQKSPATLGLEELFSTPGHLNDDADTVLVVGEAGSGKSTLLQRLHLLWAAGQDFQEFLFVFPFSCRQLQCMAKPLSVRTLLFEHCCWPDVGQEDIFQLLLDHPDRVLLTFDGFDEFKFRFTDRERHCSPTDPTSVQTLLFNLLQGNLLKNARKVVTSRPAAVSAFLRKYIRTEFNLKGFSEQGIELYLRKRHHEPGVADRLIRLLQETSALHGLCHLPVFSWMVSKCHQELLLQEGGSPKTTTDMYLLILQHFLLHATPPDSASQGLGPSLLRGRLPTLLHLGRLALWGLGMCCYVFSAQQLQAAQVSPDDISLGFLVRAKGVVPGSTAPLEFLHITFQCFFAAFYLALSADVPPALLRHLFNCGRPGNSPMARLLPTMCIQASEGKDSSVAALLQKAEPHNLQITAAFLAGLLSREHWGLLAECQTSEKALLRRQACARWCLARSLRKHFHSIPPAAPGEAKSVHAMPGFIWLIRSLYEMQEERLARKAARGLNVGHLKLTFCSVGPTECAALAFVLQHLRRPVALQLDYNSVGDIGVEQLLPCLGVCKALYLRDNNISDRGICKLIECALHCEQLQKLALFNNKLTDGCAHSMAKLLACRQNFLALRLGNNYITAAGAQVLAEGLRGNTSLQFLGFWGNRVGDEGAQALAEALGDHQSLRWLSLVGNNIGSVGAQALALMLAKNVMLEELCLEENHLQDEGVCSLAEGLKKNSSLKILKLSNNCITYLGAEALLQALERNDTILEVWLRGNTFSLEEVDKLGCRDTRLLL
Chain of Eukaryotic translation initiation factor 4E (P63073 whole entry): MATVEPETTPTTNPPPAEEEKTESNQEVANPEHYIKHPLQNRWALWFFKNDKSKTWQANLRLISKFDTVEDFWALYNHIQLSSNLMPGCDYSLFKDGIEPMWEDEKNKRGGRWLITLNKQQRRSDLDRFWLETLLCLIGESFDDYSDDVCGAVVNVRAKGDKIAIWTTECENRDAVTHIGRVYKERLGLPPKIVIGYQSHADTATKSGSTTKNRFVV
Chain of DNA dC->dU-editing enzyme APOBEC-3G (Q9HC16 whole entry): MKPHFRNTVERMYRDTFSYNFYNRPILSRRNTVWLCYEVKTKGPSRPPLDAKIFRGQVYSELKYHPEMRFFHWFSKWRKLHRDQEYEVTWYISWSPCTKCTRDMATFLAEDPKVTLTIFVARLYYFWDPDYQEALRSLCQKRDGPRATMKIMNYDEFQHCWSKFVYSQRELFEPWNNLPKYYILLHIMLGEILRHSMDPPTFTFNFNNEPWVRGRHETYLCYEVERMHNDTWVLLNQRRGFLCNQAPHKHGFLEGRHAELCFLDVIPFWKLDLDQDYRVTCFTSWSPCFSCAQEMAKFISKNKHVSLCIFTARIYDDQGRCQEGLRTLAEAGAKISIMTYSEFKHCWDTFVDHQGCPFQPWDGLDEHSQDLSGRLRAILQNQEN

As to `Cc1c(CC(=O)N2CCC(C(N)=O)CC2)c(=O)oc2cc3c(cc12)CCC1(CCCCC1)O3`, the EC50 in [1] was > 50 µM (active).

Take `O=C(O)c1c(-n2cccc2)sc2c1CCCC2`: the IC50 (at Tumor necrosis factor; in assay [2]; in assay [3]; in the assay on HEK293) was > 20 µM (inactive) throughout.

On to `OC[C@H]1[C@@H](c2ccc(/C=C/c3ccccc3)cc2)[C@@H]2CN(Cc3ccncc3)CCCCN12`, for which the AC50 in assay [4] was 2.32 µM (active); in assay [5] it was 12.7 µM (active).

`Clc1cccc(NCc2nnc(SCc3ccc(Cl)cc3Cl)o2)c1`: the IC50 was > 69.5 µM (inactive) in assay [6] and 25.4 µM (inactive) in [7]. Moreover, the CC50 in assay [8] is 19.1 µM (active).

As for `Cc1ccc2c(c1)-c1c(ssc1=S)C(C)(C)N2C(=O)c1ccco1`, the IC50 in [9] was > 66 µM (inactive); in [10], > 100 µM (inactive); in assay [11], > 66 µM (inactive).

Turning to `Cn1c(SCC(=O)NN=C(S)Nc2ccccc2)nnc1-c1ccncc1`, the IC50 at Prothrombin is listed as > 50 µM (not active).

`NC(=O)CC(NC(=O)Cc1cccc2ccccc12)c1ccc(NCCc2ccccc2F)c([N+](=O)[O-])c1` (stereo unspecified): the IC50 on SUMO-activating enzyme was 39 µM (active).

As for `COc1ccc(Cl)cc1NC(=O)CN(C)CC(=O)Nc1ccccc1C(F)(F)F`, in [1], the EC50 was > 50 µM (active).

Turning to `CN(c1ccc(OCc2ccc([N+](=O)[O-])cc2)cc1)S(=O)(=O)c1ccccc1`, the IC50 in assay [6] and in assay [7] was > 69.5 µM (inactive) in each case.

As for `O=C(CC(c1ccc(F)cc1)c1ccco1)N1CCOCC1` (stereo unspecified), the IC50 against Prothrombin is recorded as > 50 µM (not active).

With `O=C(Nc1nc2ccccc2n1Cc1ccc(Cl)cc1)c1ccc(F)cc1`, the IC50 (at Tumor necrosis factor; in assay [2]; in assay [3]; in the assay with HEK293) was > 20 µM (inactive) in each case.

Turning to `O=C(COC(=O)c1n[nH]c2ccccc12)Nc1cccc(S(=O)(=O)N2CCOCC2)c1`, in assay [12], the EC50 is > 112 µM (not active). At Prothrombin, the IC50 was 1.11 µM (active).

In the case of `O=C(Nc1nc2ccccc2n1Cc1ccc(Cl)cc1)C1CCCCC1`, the IC50 (on Tumor necrosis factor; in [2]; in [3]; in the assay with HEK293) was > 20 µM (inactive) each time.

With `N#C/C(=C(/O)COC(=O)CSc1ccc(Cl)cc1)c1nc2ccccc2[nH]1`, the IC50 (on Tumor necrosis factor; in assay [2]; in [3]; with HEK293) was > 20 µM (inactive) in each case.

For `COc1cc(NC(=O)c2cncc(-c3ccc(C#N)cc3)c2)cc(C(=O)Nc2cccc(C(F)(F)F)c2)c1`, the IC50 at SUMO-activating enzyme was 53.5 µM (active).

As to `O=C(Nc1cc(Cl)ccc1O)C1CC(c2c(F)cccc2Cl)=NO1` (stereo unspecified), the IC50 in assay [6] and in assay [7] was > 69.5 µM (inactive) in each case.

Consider `COc1ccc(C2=NS(=O)(=O)N(C)C(C(=O)Nc3ccc(C)cc3)=C2)cc1`, for which the IC50 in [6] is > 69.5 µM (inactive); in assay [7], 56.7 µM (inactive).

Regarding `O=C(CCc1ccccc1)n1nc(-c2ccco2)nc1SCc1ccccc1`, the IC50 at Prothrombin is 0.133 µM (active).

For the compound `Cc1nc2ncnn2c(N2CCN(C(=O)Cc3cccs3)CC2)c1C`, on Estrogen receptor beta, the IC50 is 107 nM (not active).

With `O=C(NCCc1ccncc1)Nc1ccc(Cl)c(Cl)c1`, the EC50 in assay [13] is 1.34 µM (active); in assay [1] it was > 50 µM (active); in assay [14], > 60 µM (not active).

For the compound `C/C=C/c1ccc([C@@H]2[C@@H](CO)N(c3nc(CC)cs3)[C@@H]2CNC(C)C)cc1`, the AC50 in assay [4] is 0.751 µM (active); in assay [5] it was 20.8 µM (active).

For the compound `Cc1nc2cc(C(=O)N3CCC4(CC3)OCCO4)ccc2n1-c1cccc(F)c1`, the EC50 in [1] is > 50 µM (active).

On to `CC(=O)Nc1nc2ccccc2n1Cc1ccccc1Cl`, for which the IC50 is 19.9 µM (active) on Tumor necrosis factor; > 20 µM (inactive) in [2]; 4.15 µM (active) in “cells”; > 20 µM (inactive) in assay [3]; > 20 µM (inactive) in the assay with HEK293. Besides, the CC50 in assay [15] was > 20 µM (active); in assay [16], 15.5 µM (active); in [17], 14.1 µM (active).

`Cc1ccc(-c2ccc3c(c2)O[C@@H](CN(C)C(=O)Nc2ccc(C(F)(F)F)cc2)[C@H](C)CN([C@H](C)CO)S3(=O)=O)cc1`: the AC50 in [4] is 5.26 µM (active); in assay [5], > 39 µM (inactive).

Take `N#CCCn1c2ccccc2c2nc3ccccc3nc21`: in [1], the EC50 is > 50 µM (active).

On to `CCN1CCN(CCNC(=O)c2ccc3c(c2)N(Cc2ccc(F)cc2)C(=O)/C(=C/c2ccccc2)S3)CC1`, for which the AC50 in [18] is 3.61 µM (active). Further, the figures for the IC50 in assay [19] and in assay [20] were > 20 µM (inactive) and 50 µM (inactive), respectively.

For `O=C(O)C1CC(c2ccccc2F)=NO1` (stereo unspecified), in [20], the IC50 is > 64 µM (inactive).

The record behind these values is ChEMBL document CHEMBL1201862, “PubChem BioAssay data set” (2004).
